Each block holds one compound with its values, some of them ahead of it. Activity calls are given as the source filed them. The calls are words filed in the database; no cut-off is given here.
Tests used:
[1] = target: T1, Proteinase-activated receptor 2 (Homo sapiens, UniProt P55085); test: Antagonist activity at protease-activated receptor 2 (unknown origin) expressed in CHO-K1 cells assessed as inhibition of trypsin-induced calcium flux by FLIPR assay; format: functional, cell-based
T1 sequence (P55085 whole entry): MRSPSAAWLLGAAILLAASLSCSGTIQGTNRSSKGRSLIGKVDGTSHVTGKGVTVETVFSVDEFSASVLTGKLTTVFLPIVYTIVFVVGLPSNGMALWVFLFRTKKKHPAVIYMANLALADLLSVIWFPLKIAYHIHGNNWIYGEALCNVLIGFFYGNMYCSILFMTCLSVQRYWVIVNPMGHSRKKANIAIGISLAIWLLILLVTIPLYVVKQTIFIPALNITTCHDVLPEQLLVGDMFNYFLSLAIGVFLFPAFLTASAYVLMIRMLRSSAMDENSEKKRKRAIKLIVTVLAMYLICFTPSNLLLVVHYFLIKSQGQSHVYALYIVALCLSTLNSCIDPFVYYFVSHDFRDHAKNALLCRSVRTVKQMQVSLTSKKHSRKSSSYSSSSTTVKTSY

[2] = target: Proteinase-activated receptor 2 (Homo sapiens) (UniProt P55085); test: Antagonist activity at protease-activated receptor 2 (unknown origin) expressed in CHO-K1 cells assessed as inhibition of trypsin-induced calcium flux at 10 uM by FLIPR assay; format: functional, cell-based
[3] = target: T1, Proteinase-activated receptor 2; test: Displacement of [3H]furoyl-LIGRL-NH2 from human protease-activated receptor 2 in NCTC-2544 cells; format: cell-based
[4] = target: Proteinase-activated receptor 2 (Homo sapiens) (UniProt P55085); test: Antagonist activity at trypsin-induced protease-activated receptor 2 activation (unknown origin) expressed in CHO-K1 cells assessed as receptor internalization at 30 uM after 1 hr by immuno-fluorescence assay (reference value: 28%); format: cell-based; set-up: scale not given: the % may be the effect or the level left
[5] = system: RAW264.7; test: Antiinflammatory activity in mouse RAW264.7 cells assessed as inhibition of LPS-induced PGE2 production at 3 uM for 1 hr followed by stimulation with LPS for 24 hrs […]; format: functional, cell-based
[6] = system: RAW264.7; test: Inhibition of LPS-induced Erk phosphorylation in mouse RAW264.7 cells at 5 to 50 uM for 1 hr followed by stimulation with LPS for 5,10 or 15 mins by western blot analysis; format: cell-based
[7] = system: RAW264.7; test: Antiinflammatory activity in mouse RAW264.7 cells assessed as inhibition of LPS-induced PGE2 production at 5 to 50 uM for 1 hr followed by stimulation with LPS for 24 hrs […]; format: functional, cell-based
[8] = target: MAP kinase p38 (Mus musculus) (UniProt P47811+O08911+Q9WUI1+Q9Z1B7); test: Inhibition of LPS-induced p38 phosphorylation in mouse RAW264.7 cells at 5 to 50 uM for 1 hr followed by stimulation with LPS for 5,10 or 15 mins by western blot analysis; format: cell-based
[9] = system: RAW264.7; test: Antiinflammatory activity in mouse RAW264.7 cells assessed as inhibition of LPS-induced NO production at 5 to 50 uM for 1 hr followed by stimulation with LPS for 24 hrs by Griess reaction; format: functional, cell-based
[10] = system: RAW264.7; test: Antiinflammatory activity in mouse RAW264.7 cells assessed as inhibition of LPS-induced TNFalpha expression compound pretreated for 1 hr followed by stimulation with LPS for 24 hrs by EIA; format: functional, cell-based
[11] = target: T2, Proteinase-activated receptor 2 (Mus musculus) (UniProt P55086); test: Antagonist activity at protease-activated receptor 2 in LPS-stimulated mouse RAW264.7 cells assessed as inhibition of NF-kappaB activation compound pretreated for 1 hr followed by stimulation with LPS for 8 hrs by luciferase reporter gene assay; format: cell-based
T2 sequence (whole entry): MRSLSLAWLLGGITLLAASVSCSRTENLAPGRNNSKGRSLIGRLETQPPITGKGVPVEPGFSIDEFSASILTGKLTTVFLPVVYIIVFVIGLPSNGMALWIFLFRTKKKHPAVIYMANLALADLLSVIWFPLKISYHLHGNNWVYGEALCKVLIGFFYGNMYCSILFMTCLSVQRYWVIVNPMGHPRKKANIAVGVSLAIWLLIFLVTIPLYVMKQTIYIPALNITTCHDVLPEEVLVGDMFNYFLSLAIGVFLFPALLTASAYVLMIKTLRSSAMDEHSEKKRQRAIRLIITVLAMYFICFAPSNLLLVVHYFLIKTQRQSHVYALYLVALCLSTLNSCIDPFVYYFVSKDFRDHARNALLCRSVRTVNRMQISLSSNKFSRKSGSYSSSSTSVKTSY

[12] = system: RAW264.7; test: Cytotoxicity against mouse RAW264.7 cells assessed as cell viability at 3.125 to 200 uM after 24 hrs by MTT assay; format: cell-based; details: raw264.7, 24 h
[13] = system: RAW264.7; test: Antiinflammatory activity in mouse RAW264.7 cells assessed as inhibition of LPS-induced iNOS expression compound pretreated for 1 hr followed by stimulation with LPS for 24 hrs by Western blot analysis; format: functional, cell-based
[14] = system: RAW264.7; test: Inhibition of LPS-induced JNK phosphorylation in mouse RAW264.7 cells at 5 to 50 uM for 1 hr followed by stimulation with LPS for 5,10 or 15 mins by western blot analysis; format: cell-based
[15] = system: Mus musculus; test: Antiinflammatory activity in C57BL/6 mouse assessed as reduction of LPS-induced sepsis at 30 mg/kg, po administered 1 hr before LPS challenge measured up to 60 hrs; format: functional; set-up: scale not given: the % may be the effect or the level left
[16] = target: T2, Proteinase-activated receptor 2 (Mus musculus); test: Antagonist activity at protease-activated receptor 2 in LPS-stimulated mouse RAW264.7 cells assessed as inhibition of AP-1 activation compound pretreated for 1 hr followed by stimulation with LPS for 8 hrs by luciferase reporter gene assay; format: cell-based
[17] = system: RAW264.7; test: Antiinflammatory activity in mouse RAW264.7 cells assessed as inhibition of LPS-induced COX2 expression at 5 to 50 uM for 1 hr followed by stimulation with LPS for 24 hrs by Western blot analysis; format: functional, cell-based
[18] = system: RAW264.7; test: Antiinflammatory activity in mouse RAW264.7 cells assessed as inhibition of LPS-induced iNOS mRNA level compound pretreated for 1 hr followed by stimulation with LPS for 24 hrs by qRT-PCR analysis; format: functional, cell-based
[19] = system: Mus musculus; test: Antiinflammatory activity in C57BL/6 mouse assessed as reduction of LPS-induced sepsis at 7.5 mg/kg, po administered 1 hr before LPS challenge measured up to 60 hrs; format: functional; set-up: scale not given: the % may be the effect or the level left
[20] = system: RAW264.7; test: Antiinflammatory activity in mouse RAW264.7 cells assessed as inhibition of LPS-induced COX2 mRNA expression at 5 to 50 uM for 1 hr followed by stimulation with LPS for 4 hrs QT-PCR analysis; format: functional, cell-based
[21] = system: RAW264.7; test: Antiinflammatory activity in mouse RAW264.7 cells assessed as inhibition of LPS-induced IL-6 expression compound pretreated for 1 hr followed by stimulation with LPS for 24 hrs by EIA; format: functional, cell-based
[22] = system: Mus musculus; test: Antiinflammatory activity in C57BL/6 mouse assessed as reduction of LPS-induced sepsis at 15 mg/kg, po administered 1 hr before LPS challenge measured up to 60 hrs; format: functional; set-up: scale not given: the % may be the effect or the level left
[23] = system: RAW264.7; test: Antiinflammatory activity in mouse RAW264.7 cells assessed as inhibition of LPS-induced IL-1beta expression compound pretreated for 1 hr followed by stimulation with LPS for 24 hrs by EIA; format: functional, cell-based
[24] = target: T1, Proteinase-activated receptor 2; test: Antagonist activity at protease-activated receptor 2 (unknown origin)

Ki [3]: 1940 nM
Compound: NCC[C@H](NC(=O)CNC(=O)Nc1ccc2c(c1)c(CN1CCCC1)cn2Cc1c(Cl)cccc1Cl)C(=O)N[C@H](Cc1ccccc1)C(=O)Nc1ccccc1

IC50 [1]: 690 nM
inhibition [2]: 73.2%
Compound: CCCCCNc1nc(NCc2ccco2)c2cc(F)ccc2n1

inhibition [2]: inactive
Compound: COc1ccc2nc(Oc3ccc(Cl)c(Cl)c3)nc(NCc3ccco3)c2c1

inhibition [2]: inactive
Compound: Cc1ccoc1CNc1nc(Oc2ccc(Cl)cc2Cl)nc2ccccc12

inhibition [2]: inactive
Compound: COc1ccc2nc(Oc3cc(Cl)cc(Cl)c3)nc(NCc3ccco3)c2c1

inhibition [2]: 23.1%
Compound: COc1ccc(Oc2nc(NCc3occc3C)c3ccccc3n2)cc1

inhibition [2]: inactive
Compound: COc1ccc2nc(Oc3cccc(Cl)c3)nc(NCc3ccco3)c2c1

inhibition [2]: inactive
Compound: Cc1ccoc1CNc1nc(Oc2cccc(Cl)c2)nc2ccccc12

inhibition [8]: inactive
inhibition [11]: Dose-dependent effect
IC50 [1]: 2800 nM
inhibition [16]: Dose-dependent effect
inhibition [2]: 47.7%
Activity [4]: 12%
Compound: Cc1ccoc1CNc1nc(Oc2cc(Cl)cc(Cl)c2)nc2ccc(F)cc12
inhibition [6]: Active
inhibition [7]: Active
inhibition [9]: Active
inhibition [10]: Dose-dependent effect
Activity [12]: Non-toxic
inhibition [13]: Dose-dependent effect
inhibition [14]: inactive
Activity [15]: 20%
inhibition [17]: Active
inhibition [18]: Dose-dependent effect
Activity [19]: 80%
inhibition [20]: Active
inhibition [21]: Dose-dependent effect
Activity [22]: 60%
inhibition [23]: Dose-dependent effect

IC50 [24]: 2000 nM
Compound: CC[C@H](C)[C@H](NC(=O)[C@H](CC1CCCCC1)NC(=O)c1ccno1)C(=O)N1CCC2(C=Cc3ccccc32)CC1

More lines, now with the values behind:

Compound: COc1ccc2nc(Oc3ccc(Cl)cc3Cl)nc(NCc3occc3C)c2c1
IC50 [1]: > 10000 nM
inhibition [2]: 33.1%

Compound: Cc1ccc(CNc2nc(Oc3ccc(Cl)cc3Cl)nc3ccc(Cl)cc23)o1
inhibition [2]: inactive

Compound: Cc1ccoc1CNc1nc(Oc2ccc(Cl)c(Cl)c2)nc2ccc(F)cc12
inhibition [2]: < 10%

Compound: NCCCC[C@H](NC(=O)CNC(=O)Nc1ccc2c(c1)c(CN1CCCC1)cn2Cc1c(Cl)cccc1Cl)C(=O)N[C@H](Cc1ccccc1)C(=O)NC(c1ccccc1)c1ccccc1
Ki [3]: 627 nM

Compound: Cc1ccc(CNc2nc(Oc3cc(Cl)cc(Cl)c3)nc3ccc(F)cc23)o1
inhibition [2]: < 10%
Activity [4]: 24%

Compound: Cc1ccc(CNc2nc(Oc3ccc(Cl)c(Cl)c3)nc3ccc(F)cc23)o1
inhibition [2]: inactive

Compound: CS(=O)(=O)Nc1ccc([N+](=O)[O-])cc1OC1CCCCC1
inhibition [5]: Active

Compound: Clc1ccc(Oc2nc(NCc3ccco3)c3cc(Cl)ccc3n2)c(Cl)c1
inhibition [2]: < 10%

Compound: Clc1cc(Cl)cc(COc2nc(NCc3ccco3)c3ccccc3n2)c1
inhibition [2]: inactive

Compound: Clc1ccc(Oc2nc(NCc3ccco3)c3ccccc3n2)cc1Cl
inhibition [2]: inactive

Compound: Clc1ccc(COc2nc(NCc3ccco3)c3ccccc3n2)c(Cl)c1
inhibition [2]: 16.5%
